Measured values as given in article PMC2728155 (Molecular cancer therapeutics, 2009).
Like-named read-outs stand apart in the source and are kept apart here.

Legend:
murine sEH = biological target: T1, murine sEH (Mus musculus, UniProt P34914); assay: Fluorescent sEH inhibition assay
T1 sequence (P34914 1-554): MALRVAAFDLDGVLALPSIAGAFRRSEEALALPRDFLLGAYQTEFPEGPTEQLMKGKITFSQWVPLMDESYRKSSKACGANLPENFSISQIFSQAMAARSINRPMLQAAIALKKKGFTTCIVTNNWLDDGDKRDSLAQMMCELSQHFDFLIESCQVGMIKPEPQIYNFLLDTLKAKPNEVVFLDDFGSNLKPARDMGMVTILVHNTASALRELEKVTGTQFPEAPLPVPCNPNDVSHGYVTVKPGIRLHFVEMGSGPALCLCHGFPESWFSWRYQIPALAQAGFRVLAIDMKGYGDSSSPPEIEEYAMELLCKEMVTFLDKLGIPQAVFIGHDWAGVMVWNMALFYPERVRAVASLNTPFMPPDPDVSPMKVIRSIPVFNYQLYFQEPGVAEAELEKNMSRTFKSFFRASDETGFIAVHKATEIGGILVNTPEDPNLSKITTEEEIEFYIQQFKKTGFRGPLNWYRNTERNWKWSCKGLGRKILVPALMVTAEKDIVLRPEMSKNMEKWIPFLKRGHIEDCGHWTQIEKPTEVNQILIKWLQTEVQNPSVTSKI

[1] = system: ERK phosphorylation in ACHN and A498 cells; assay: Immunoblot of ERK phosphorylation after PDGF stimulation; assay type: cell-based, human; conditions: two RCC cell lines (ACHN, A498), 10 μM, 1 h, then PDGF 10 ng/ml 15 min
[2] = system: ACHN and A498 human RCC cells; assay: MTT assay of cell growth; assay type: cell-based; conditions: 10 μM, 48 h
[3] = system: caspase-1 and caspase-3 activity in ACHN and A498 cells; assay: Caspase assay; assay type: cell-based, human; conditions: 10 μM, 48 h
[4] = mice, sorafenib tosylate 5 mg/kg oral
[5] = man, phase I study, cited from earlier work
in vivo = conditions: male, Swiss-Webster, mouse, po, 5 mg/kg
human sEH [6] = biological target: T2, human sEH (Homo sapiens, UniProt P34913); assay: biochemical; assay type: biochemical
T2 sequence (P34913 1-555): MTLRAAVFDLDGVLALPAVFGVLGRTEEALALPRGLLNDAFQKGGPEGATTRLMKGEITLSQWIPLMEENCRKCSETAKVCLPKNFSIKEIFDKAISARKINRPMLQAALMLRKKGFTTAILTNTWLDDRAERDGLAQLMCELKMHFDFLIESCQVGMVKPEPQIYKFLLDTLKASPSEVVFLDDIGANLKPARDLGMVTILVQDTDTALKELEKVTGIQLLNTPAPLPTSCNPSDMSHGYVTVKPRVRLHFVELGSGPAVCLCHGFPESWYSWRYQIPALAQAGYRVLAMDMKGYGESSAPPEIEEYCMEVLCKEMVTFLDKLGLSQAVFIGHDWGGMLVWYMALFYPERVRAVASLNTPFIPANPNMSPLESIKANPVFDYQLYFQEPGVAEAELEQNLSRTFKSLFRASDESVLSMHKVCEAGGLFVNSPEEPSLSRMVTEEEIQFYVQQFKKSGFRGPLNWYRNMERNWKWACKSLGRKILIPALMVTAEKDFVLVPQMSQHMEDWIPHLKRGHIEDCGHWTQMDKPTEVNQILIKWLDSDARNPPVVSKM

human sEH [7] = biological target: T2, human sEH; assay type: biochemical; conditions: read-out: Inhibition of the Human sEH KI; pH 7.4

Compound `Cc1nc(Nc2ncc(C(=O)Nc3c(C)cccc3Cl)s2)cc(N2CCN(CCO)CC2)n1` [Dasatinib] has an IC50 (murine sEH) of 27 µM.

For `COc1cccc(-c2cc(=O)c3ccccc3o2)c1N` [PD98059], the ERK phosphorylation [1] was “attenuate ERK phosphorylation”.

With `CNC(=O)c1cc(Oc2ccc(NC(=O)Nc3ccc(Cl)c(C(F)(F)F)c3)cc2)ccn1` [Sorafenib] the “Decrease of cell growth as compared to serum-stimulated cells” value [2] was 65-70%, the “Apoptosis: caspase-1 and caspase-3 activity” value [3] was “activation of caspase-1 and caspase-3 activity” and the ERK phosphorylation [1] was “attenuate ERK phosphorylation”. For the same compound, the “Blood level after 24 h” value [4] was “no sorafenib could be detected”, the Cmax ([5]; similar doses) was greater than 1500 nM and the AUC0-12 [5] was “more than 13000 nM h”. For the same compound, the Elimination half life [5] was “more than 20 hours”, the Tmax [5] was “more than 2 h” and the AUC(0-t) (in vivo) was 0.63 µM·h. The Cmax (in vivo) was roughly 120 nM and the half-life (in vivo) was 2.6 h.

For `CCN(CC)CCNC(=O)c1c(C)[nH]c(/C=C2\C(=O)Nc3ccc(F)cc32)c1C` [Sunitinib], the IC50 (human sEH [6]) was 55 µM and the “Inhibition of the human sEH (in words)” value (human sEH [6]; fluorescent assay) was “not potent inhibitors of the human sEH”.

For `CS(=O)(=O)N1CCC(NC(=O)Nc2ccc(OC(F)(F)F)cc2)CC1` [TUPS], the IC50 (human sEH [6]; read-out: Inhibition of the Human sEH IC50, pH 7) was 0.003 ± 0.001 µM and the Ki (human sEH [7]) was 0.014 ± 0.004 µM.
